Measured values published in ChEMBL document CHEMBL5505992, “Novel membrane-targeting isoxanthohumol-amine conjugates for combating methicillin-resistant Staphylococcus aureus (MRSA) infections” (Eur J Med Chem, 2024).
Active and inactive are the calls of the source. No cut-off for these calls is given here.

Key:
[1] = Toxicity in Kunming mouse assessed as effect on liver at 4 to 8 mg/kg, sc measured after 24 hrs by H and E staining based analysis; format: organism-based; conditions: in vivo, dose 4-8 mg/kg
[2] = test system: Cell membrane; assay: Induction of cell membrane permeability in methicillin-resistant Staphylococcus aureus clinical isolate MRSA-16 assessed as decrease in intact cells (Q3 region) at 8 ug/ml incubated for 2 hrs by SYTO 9 and PI staining based flow cytometry analysis (reference value: 99.07%); format: cell membranes; set-up: scale not given: the % may be the effect or the level left; conditions: dose 8.0 µg/ml
[3] = test system: Staphylococcus aureus; assay: Bactericidal activity against Staphylococcus aureus ATCC 29213 assessed as bacterial killing at 4 times MIC measured within 4 to 8 hrs by time kill assay relative to control; format: functional; conditions: time 4-8 hrs
[4] = test system: Cell membrane; assay: Induction of cell membrane permeability in methicillin-resistant Staphylococcus aureus clinical isolate MRSA-16 assessed as increase in damaged cells (Q2 region) at 8 ug/ml incubated for 2 hrs by SYTO 9 and PI staining based flow cytometry analysis (reference value: 0.91%); format: cell membranes; conditions: dose 8.0 µg/ml
[5] = test system: Staphylococcus aureus; assay: Antibacterial activity against methicillin-resistant Staphylococcus aureus clinical isolate MRSA-20 measured after 16 to 18 hrs by CLSI method; format: functional; conditions: time 16-18 hrs
[6] = Hemolytic activity in sheep erythrocytes incubated for 1 hr by absorbance based analysis; format: toxicity, cell-based, Ovis aries, Erythrocyte
[7] = test system: Cell membrane; assay: Induction of cell membrane permeability in methicillin-resistant Staphylococcus aureus clinical isolate MRSA-16 assessed as decrease in intact cells (Q3 region) at 4 ug/ml incubated for 2 hrs by SYTO 9 and PI staining based flow cytometry analysis (reference value: 99.07%); format: cell membranes; set-up: scale not given: the % may be the effect or the level left; conditions: dose 4.0 µg/ml
[8] = test system: Staphylococcus aureus; assay: Antibacterial activity against methicillin-resistant Staphylococcus aureus infected in Kunming mouse skin infection model assessed as decrease in bacterial load at 8 mg/kg,sc measured after 24 hrs relative to control; format: functional; set-up: scale not given: the % may be the effect or the level left
[9] = test system: Staphylococcus aureus; assay: Antibacterial activity against methicillin-resistant Staphylococcus aureus in presence of phosphatidylglycerol; format: functional, organism-based
[10] = test system: Cell membrane; assay: Induction of cell membrane depolarization in methicillin-resistant Staphylococcus aureus clinical isolate MRSA-16 assessed as increase in fluorescence intensity measured after 10 mins by DISC3(5) staining based analysis; format: cell membranes; conditions: dose 8-32 µg/ml
[11] = test system: Staphylococcus aureus; assay: Antibacterial activity against methicillin-resistant Staphylococcus aureus infected in Kunming mouse skin infection model assessed as smooth dorsal skin at 8 mg/kg,sc measured after 24 hrs; format: functional, organism-based
[12] = Toxicity in Kunming mouse assessed as effect on liver at 10 mg/kg, sc measured after 24 hrs by H and E staining based analysis; format: organism-based; conditions: in vivo
[13] = test system: Cell membrane; assay: Induction of cell membrane permeability in methicillin-resistant Staphylococcus aureus clinical isolate MRSA-16 assessed as dead cells (Q1 region) at 64 ug/ml incubated for 2 hrs by SYTO 9 and PI staining based flow cytometry analysis (reference value: 0.00%); format: cell membranes; conditions: dose 64.0 µg/ml
[14] = test system: Cell membrane; assay: Induction of cell membrane permeability in methicillin-resistant Staphylococcus aureus clinical isolate MRSA-16 assessed as dead cells (Q1 region) at 4 ug/ml incubated for 2 hrs by SYTO 9 and PI staining based flow cytometry analysis (reference value: 0.00%); format: cell membranes; conditions: dose 4.0 µg/ml
[15] = Toxicity in Kunming mouse assessed as histopathological abnormalities in spleen at 4 to 8 mg/kg, sc measured after 24 hrs by H and E staining based analysis; format: organism-based; conditions: in vivo, dose 4-8 mg/kg
[16] = test system: Staphylococcus aureus; assay: Antibacterial activity against methicillin-resistant Staphylococcus aureus infected in Kunming mouse skin infection model assessed as effect on skin abscesses at 4 mg/kg,sc measured after 24 hrs; format: functional, organism-based
[17] = Toxicity in Kunming mouse assessed as redness in back of skin at 20 mg/kg, sc measured after 24 hrs; format: organism-based; conditions: in vivo
[18] = test system: Staphylococcus aureus; assay: Antibacterial activity against methicillin-resistant Staphylococcus aureus in presence of peptidoglycan; format: functional
[19] = Toxicity in Kunming mouse assessed as swelling in back of skin at 20 mg/kg, sc measured after 24 hrs; format: organism-based; conditions: in vivo
[20] = test system: Staphylococcus aureus; assay: Antibacterial activity against methicillin-resistant Staphylococcus aureus infected in Kunming mouse skin infection model assessed as reduction in number of bacterial cells at 4 to 8 mg/kg,sc measured after 24 hrs; format: functional, organism-based; conditions: dose 4-8 mg/kg
[21] = Toxicity in Kunming mouse assessed as histopathological abnormalities in skin at 10 mg/kg, sc measured after 24 hrs by H and E staining based analysis; format: organism-based; conditions: in vivo
[22] = test system: Cell membrane; assay: Induction of cell membrane permeability in methicillin-resistant Staphylococcus aureus clinical isolate MRSA-16 assessed as increase in damaged cells (Q2 region) at 4 ug/ml incubated for 2 hrs by SYTO 9 and PI staining based flow cytometry analysis (reference value: 0.91%); format: cell membranes; conditions: dose 4.0 µg/ml
[23] = test system: Cell membrane; assay: Disruption of cell membrane in methicillin-resistant Staphylococcus aureus clinical isolate MRSA-16 assessed as fold increase in intracellular ROS production at 64 ug/ml measured after 40 mins by DCFH-DA dye based fluorescence assay; format: cell membranes; conditions: dose 64.0 µg/ml
[24] = Toxicity in Kunming mouse assessed as histopathological abnormalities in kidney at 4 to 8 mg/kg, sc measured after 24 hrs by H and E staining based analysis; format: organism-based; conditions: in vivo, dose 4-8 mg/kg
[25] = test system: Cell membrane; assay: Induction of cell membrane permeability in methicillin-resistant Staphylococcus aureus clinical isolate MRSA-16 assessed as decrease in intact cells (Q3 region) at 32 ug/ml incubated for 2 hrs by SYTO 9 and PI staining based flow cytometry analysis (reference value: 99.07%); format: cell membranes; set-up: scale not given: the % may be the effect or the level left; conditions: dose 32.0 µg/ml
[26] = test system: Staphylococcus aureus; assay: Antibacterial activity against methicillin-resistant Staphylococcus aureus infected in Kunming mouse skin infection model assessed as effect on skin abscesses in subcutaneous tissue at 8 mg/kg,sc measured after 24 hrs; format: functional, organism-based
[27] = test system: Escherichia coli; assay: Antibacterial activity against Escherichia coli ATCC25922 measured after 16 to 18 hrs by CLSI method; format: functional; conditions: time 16-18 hrs
[28] = Cytotoxicity against human L02 cells assessed as cell viability at 32 ug/ml by CCK-8 method relative to control; format: toxicity, cell-based; conditions: at 32 µg/mL, read-out: Activity
[29] = Toxicity in Kunming mouse assessed as survival rate at 40 mg/kg, sc measured after 24 hrs relative to control; format: organism-based; conditions: in vivo
[30] = test system: Cell membrane; assay: Disruption of cell membrane in methicillin-resistant Staphylococcus aureus clinical isolate MRSA-16 assessed as increase in intracellular DNA leakage incubated for 4 hrs by microspectrophotometer analysis; format: cell membranes
[31] = test system: Staphylococcus aureus; assay: Induction of morphological changes in methicillin-resistant Staphylococcus aureus clinical isolate MRSA-16 assessed as appearance of uneven cell surface at 16 ug/ml incubated for 4 hrs by SEM analysis; format: functional, organism-based; conditions: dose 16.0 µg/ml
[32] = test system: Cell membrane; assay: Induction of cell membrane permeability in methicillin-resistant Staphylococcus aureus clinical isolate MRSA-16 assessed as dead cells (Q1 region) at 16 ug/ml incubated for 2 hrs by SYTO 9 and PI staining based flow cytometry analysis (reference value: 0.00%); format: cell membranes; conditions: dose 16.0 µg/ml
[33] = test system: Cell membrane; assay: Induction of cell membrane permeability in methicillin-resistant Staphylococcus aureus clinical isolate MRSA-16 assessed as dead cells (Q1 region) at 8 ug/ml incubated for 2 hrs by SYTO 9 and PI staining based flow cytometry analysis (reference value: 0.00%); format: cell membranes; conditions: dose 8.0 µg/ml
[34] = Toxicity in Kunming mouse assessed as survival rate at 80 mg/kg, sc measured after 24 hrs relative to control; format: organism-based; conditions: in vivo
[35] = Toxicity in Kunming mouse assessed as effect on kidney at 10 mg/kg, sc measured after 24 hrs by H and E staining based analysis; format: organism-based; conditions: in vivo

CCCC[N+](C)(CCCC)CCCCCOc1ccc(C2CC(=O)c3c(OC)cc(OCCCCC[N+](C)(CCCC)CCCC)c(CC=C(C)C)c3O2)cc1.[I-].[I-] (stereo not given)
Activity [1]: Non-Toxic | Activity [2]: 39.7% | Activity [3]: 100% | Activity [4]: 57.4% | MIC [5]: 0.5 µg/mL | HC50 at 1 h [6]: > 1280 µg/mL | Activity [7]: 60.8% | Activity [8]: 99.99% | Activity [9]: Active | Activity [10]: Dose-Dependent Effect | Activity [11]: Active | Activity [12]: Non-Toxic | Activity [13]: 100% | Activity [14]: 0.44% | Activity [15]: Non-Toxic | Activity [16]: Active | Activity [17]: Toxic | MIC [18]: 32 µg/mL | Activity [19]: Toxic | Activity [20]: Active | Activity [21]: Non-Toxic | Activity [22]: 38.6% | fold change (FC) [23]: 4 | Activity [24]: Non-Toxic | Activity [25]: 0.02% | Activity [26]: inactive | MIC [27]: 16 µg/mL | viability at 32 ug/ml [28]: 72% | survival at 24 h [29]: 80% | Activity [30]: Active | Activity [31]: Active | Activity [32]: 28.4% | Activity [33]: 2.94% | survival at 24 h [34]: 40% | Activity [35]: Non-Toxic
